Data: publication PMC12736495, “First Insights into the Anti-Inflammatory Potential of Colliguaja odorifera Molina Leaf Extracts and Their Isolated Phenolic Compounds” (Plants, 2025)
Entries after “also recorded” stand apart in the source; their conditions may differ. Where two headings read alike, the source gives them in different places. Values belong to the compound of their own block, whether it stands above or below them.

Key:
sPLA2 (Type V) = biological target: T1, sPLA2 (Type V) (Homo sapiens, UniProt P39877); assay: Screening assay for phospholipase A2 inhibitors (Type V), Cayman kit; format: biochemical
T1 construct: purchased Cayman Chemical Co. (Ann Arbor, MI, USA)
T1 sequence (P39877 21-138): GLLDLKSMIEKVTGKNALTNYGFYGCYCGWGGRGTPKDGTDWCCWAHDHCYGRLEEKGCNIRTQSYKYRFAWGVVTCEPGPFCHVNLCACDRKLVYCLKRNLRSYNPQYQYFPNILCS
Procedure: The phospholipase A2 inhibitory activity was determined using the phospholipase A2 (sPLA2) inhibitor detection assay kit (Type V). This kit was purchased from Cayman Chemical Co. (Ann Arbor, MI, USA). Briefly, 10 μL of C. odorifera extracts (HA-E, EA-E, B-E, and W-E, separately) were pre-incubated with 25 mM Tris-HCl buffer at pH 7.5, including 10 μL of phospholipase A2. The reaction was initiated by adding 200 μL of a 1.66 mM diheptanoyl thio-PC substrate solution. The plate was then shaken for 30 s and incubated at 25 °C for 15 min. Then, 10 µL of 5,5′-dithiobis(2-nitrobenzoic acid) (DTNB) was added to stop the enzymatic reaction and allow color development. The reaction mixture was stirred on a shaker for one minute, and the absorbance was subsequently measured at 405 nm with a spectrophotometer (METASH, UV-1500B; Shanghai Metash Instrument Co., Shanghai, China). According to the kit instructions, the sPLA2 activity was evaluated with extract concentrations ranging from 27 to 108 μg/mL. Arachidonic thioester phosphatidylcholine was used as the positive control. […] All tests were performed in triplicate.

Lipoxygenase = conditions: cited from earlier work
[1] = biological target: T2, lipoxygenase Type I-B LOX A from Glycine max L. (soybean) (15-LOX) (Glycine max, UniProt P08170); assay: Inhibitory LOX activity assay (linoleic acid, absorbance at 234 nm); format: biochemical
T2 construct: purchased Sigma-Aldrich (Steinheim, Germany)
T2 sequence (P08170 1-839): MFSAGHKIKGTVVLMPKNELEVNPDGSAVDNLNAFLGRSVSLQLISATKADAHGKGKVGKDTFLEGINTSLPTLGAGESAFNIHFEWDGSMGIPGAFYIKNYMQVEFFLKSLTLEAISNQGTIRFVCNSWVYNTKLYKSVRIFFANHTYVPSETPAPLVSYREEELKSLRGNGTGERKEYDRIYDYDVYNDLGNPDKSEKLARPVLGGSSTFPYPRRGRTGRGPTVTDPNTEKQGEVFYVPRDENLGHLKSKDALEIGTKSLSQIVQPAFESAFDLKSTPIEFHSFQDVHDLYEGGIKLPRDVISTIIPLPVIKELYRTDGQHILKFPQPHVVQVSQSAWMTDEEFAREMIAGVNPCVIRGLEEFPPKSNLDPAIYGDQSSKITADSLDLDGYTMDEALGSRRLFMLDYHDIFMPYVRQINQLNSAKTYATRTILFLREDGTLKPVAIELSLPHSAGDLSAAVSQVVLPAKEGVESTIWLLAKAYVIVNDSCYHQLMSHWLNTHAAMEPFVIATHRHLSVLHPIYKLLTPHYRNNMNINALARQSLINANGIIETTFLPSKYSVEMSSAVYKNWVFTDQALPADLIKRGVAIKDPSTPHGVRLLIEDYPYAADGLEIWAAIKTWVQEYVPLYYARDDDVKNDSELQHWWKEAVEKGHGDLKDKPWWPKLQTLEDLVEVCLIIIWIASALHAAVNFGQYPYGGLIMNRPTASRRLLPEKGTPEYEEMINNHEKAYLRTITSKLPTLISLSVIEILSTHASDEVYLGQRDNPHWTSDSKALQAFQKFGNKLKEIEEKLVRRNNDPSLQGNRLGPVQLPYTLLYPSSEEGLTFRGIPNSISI
Procedure: The inhibitory LOX assay was conducted according to the procedure established by Lyckander and Malterud. The lipoxygenase Type I-B LOX A from Glycine max L. (soybean) (CAS: 9029-60-1) (15-LOX) with an optimal pH of 8.0–9.0 and linoleic acid used here, was obtained from Sigma-Aldrich (Steinheim, Germany).
A linoleic acid ethanol solution (268 µM) was prepared, and 50 µL of this solution was used to prepare concentrations ranging from 0.6 to 26 µg/mL for the HA-E sample, and from 0.6 to 12.9 µg/mL for the EA-E and B-E samples. Then the volume for each concentration was adjusted to 1 mL with 200 mM borate buffer (pH 8.75) containing 0.005% Tween 80. The reaction was initiated by adding 1.5 µL of Soybean 1-LOX (948 U), equivalent to 0.054 g/mL. Enzymatic activity was monitored by measuring the increase in absorbance at 234 nm for 4 min at 37 °C. Each enzyme measurement for each dilution was repeated three times. All tests were performed in triplicate. For this purpose, three samples were taken from each extract. For each of them, enzymatic activity was determined as described above. […] The percentage inhibition of enzyme activity was calculated by comparing the absorbance of the samples to that of the blank, using Equation (1), where A0 is the absorbance of the blank, and A1 is the absorbance of the sample.% inhibition = [(A0 − A1)/A0] × 100(1)
The percentage of inhibition was plotted against sample concentration to calculate the IC50 value.

hyaluronidase = biological target: T3, hyaluronidase (Bos taurus, UniProt Q2YDK3); assay: Hyaluronidase inhibition assay (turbidimetric kit); format: biochemical; conditions: sodium hyaluronate substrate, 37 °C, mean ± s.d.
T3 sequence (Q2YDK3 36-553): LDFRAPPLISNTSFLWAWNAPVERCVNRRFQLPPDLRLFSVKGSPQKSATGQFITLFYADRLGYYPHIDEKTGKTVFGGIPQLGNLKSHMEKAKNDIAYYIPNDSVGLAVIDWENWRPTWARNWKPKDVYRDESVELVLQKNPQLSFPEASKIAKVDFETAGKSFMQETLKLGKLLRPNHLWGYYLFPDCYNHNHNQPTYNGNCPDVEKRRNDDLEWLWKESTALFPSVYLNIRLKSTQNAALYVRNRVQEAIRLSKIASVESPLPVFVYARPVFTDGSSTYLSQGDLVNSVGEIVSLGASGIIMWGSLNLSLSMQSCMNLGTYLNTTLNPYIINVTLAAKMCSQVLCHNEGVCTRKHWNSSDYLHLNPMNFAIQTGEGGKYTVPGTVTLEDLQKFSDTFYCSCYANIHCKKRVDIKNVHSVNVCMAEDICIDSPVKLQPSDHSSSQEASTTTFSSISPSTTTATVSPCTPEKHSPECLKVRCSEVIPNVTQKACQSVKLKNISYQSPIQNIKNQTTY
Procedure: The hyaluronidase inhibitory activity of the extracts was assessed using the Hyaluronidase Inhibitor Detection Assay Kit purchased from Sigma-Aldrich (St. Louis, MO, USA), which employs a two-step turbidimetric reaction to measure the amount of hyaluronic acid hydrolyzed by the enzyme, where the decrease in turbidity is proportional to the enzymatic activity of the sample. The assay was conducted according to the manufacturer’s instructions, with slight modifications, using 96-well plates. Briefly, a reaction mixture containing 10 μL of C. odorifera extract (HA-E, EA-E, B-E, and W-E, separately) and 20 μL of the enzyme (at a concentration of 100 U/mL in incubation buffer) was mixed in each well. After a 15 min incubation at 37 °C, a 20 μL substrate solution (0.1% sodium hyaluronate) was added to each well. The plates were incubated at 37 °C for an additional 20 min. Then, non-hydrolyzed […] was precipitated by adding 250 μL of 2.5% cetyltrimethylammonium bromide (CTAB). […] The intensity of complex formation was measured by absorbance at 630 nm in a spectrophotometer (METASH, UV-1500B). […] The percentage of hyaluronidase inhibition was calculated using Equation (2), where AS is the absorbance of the solution with the sample extract, AC is the absorbance of the solution without inhibitor, and AT is the absorbance of the enzyme.Inhibition = (AS − AC)/(AT − AC) × 100(2)

[2] = LOX Inhibition (IC50 µg/mL), soybean 15-LOX, linoleic acid substrate, borate buffer pH 8.75, 37 °C, mean ± s.d.
[3] = anti-LOX activity, concentration for 50% inhibition in µM, same LOX IC50 expressed in µM

SMILES: O=c1c(O)c(-c2ccc(O)c(O)c2)oc2cc(O)cc(O)c12 [Quercetin, reference compound]
IC50 (sPLA2 (Type V); sPLA2-V, diheptanoyl thio-PC substrate, 25 °C, mean ± s.d., read-out: sPLA2 Inhibition (IC50 µg/mL) (converted)): 77.7 µM

SMILES: CC(C)Cc1ccc(C(C)C(=O)O)cc1 (centres unmarked) [Ibuprofen]
Lipoxygenase inhibition IC50 (Lipoxygenase; extract and its control): 69.7 µg/mL

SMILES: O=c1cc(-c2ccccc2)oc2cc(O)c(O)c(O)c12 [Baicalein]
Lipoxygenase inhibition IC50 (Lipoxygenase; Euphorbiaceae extract and its control): 22.4 µg/mL
Lipoxygenase inhibition IC50 (Lipoxygenase; extract and its control): 0.15 µg/mL

SMILES: O=C(O)C1=C[C@@H](O)[C@@H](O)[C@H](O)C1 [Shikimic acid]
IC50 [1, 2]: 5.57 µM
IC50 [1, 3]: 5.6 µM
HA Inhibition (IC50 µg/mL) (hyaluronidase): did not elicit anti-sPLA2-V and anti-hyaluronidase activities
sPLA2 Inhibition (IC50 µg/mL) (sPLA2 (Type V); sPLA2-V, diheptanoyl thio-PC substrate, 25 °C, mean ± s.d.): did not elicit anti-sPLA2-V; also recorded: not active

SMILES: COc1ccc2c(c1)c(CC(=O)O)c(C)n2C(=O)c1ccc(Cl)cc1 [Indomethacin]
Lipoxygenase inhibition IC50 (Lipoxygenase; extract and its control): 7.9 µg/mL

SMILES: COC(=O)c1cc(O)c(O)c(O)c1 [Methyl gallate]
IC50 [1, 2]: 330 µM

SMILES: O=C(O)c1cc(O)c(O)c(O)c1 [Gallic acid]
IC50 [1, 2]: 2.17 µM
IC50 [1, 3]: 2.2 µM
IC50 (sPLA2 (Type V)): 65.6 µM

IC50 ([1]; soybean 15-LOX, linoleic acid substrate, borate buffer pH 8.75, 37 °C, mean ± s.d., read-out: LOX Inhibition (IC50 µg/mL) (converted)): 329 µM
SMILES: CCOC(=O)c1cc(O)c(O)c(O)c1 [Ethyl gallate]
